Test results: PMC11134387, “Cancer-Stem-Cell Phenotype-Guided Discovery of a Microbiota-Inspired Synthetic Compound Targeting NPM1 for Leukemia” (JACS Au, 2024)

Experiments:
[1] = system: NPM1; test: Western blot of NPM1 in OCI-AML3 cells; format: cell-based; details: for Densitometry values for NPM1: reduction: OCI-AML3, 10 μM
Protocol: We next studied the impact of UCM-13369 in the genes and/or expression levels of NPM1 and NPM1 C+ pathway components (Figure 4A), including the positive regulation of c-Myc[34] and the negative regulation of FBXW7 and the pro-apoptotic CASP8.[35] […] The inhibition of NPM1 was also observed in MOLM13 cells expressing WT NPM1 (Figure S1B).
Assay (Bio-Rad Labo rato ries, Hercules, CA, USA) and 20 µg of total protein s was loaded onto 10% SDS-PAGE gels followed by transfer onto a nitrocellulose membrane. Blots were incubated with primary antibodies α-NPM1 (Abcam ), α-M YC (Cel l Signaling), α-FBXW7 ( Abcam) and an ti-mouse or anti-rabbit secondary antibodies (BD). An antibody to β-actin was used to check for equivalent protei n loading. Membranes were developed by enhanced chemiluminescenc e (Clarity Weste rn ECL substrate; Bio-Rad Laboratories ).
Densitometry was performed with Image Lab software, normalized to the signal of β-actin, and r-normalized with the control.
Proteomic analysis. A supplementary table (Excel file) includes all the data of the proteomic analysis, showing all the proteins identified, not only those ablated in the treated population, but also those found with different expression levels in both populations under study, and even those that were not detected in the control population but were detected in the treated population. Follows the image of a Venn diagram showing the number of proteins detected in each of the pop ulations and the proteins that converg e […]
2.3. NPM1 protein studies
DNA constructs. For recombinant expression, pET28a(+) vectors encoding the native, N-end pentameric domain (residues 1- 130) and the C-end domain (residues 225- 294) constructs of NPM1 –all of which contained a N -terminal 6xHis tag– were available at the lab.4 Site directed mutagenesis was p erfo rmed by polymerase chain reaction (PCR) using the pET28a-NPM1 C-end WT vector to obtain the NPM1 C-end AML mutant construct (NPM1 C-end C+). The following primers were designed: 5’ – […]
(1 picture or pasted object on this page, not shown here)

[2] = molecular target: T1, NPM1 C-end WT (Homo sapiens, UniProt P06748); test: Isothermal titration calorimetry, NPM1 C-end WT; format: binding; details: ITC, 25 °C
T1 construct: the C-end domain (residues 225- 294); 6xHis (N); made in house; host or cells: E. coli BL21(DE3)
From the text: To confirm a direct interaction of UCM-13369 with NPM1 and to address which domain of the protein would be responsible for binding the compound, pure protein samples of the pentameric N-end domain of NPM1, along with the C-terminal DNA-binding domains of WT and mutant NPM1 C+, were used in calorimetry assays. […] This is indicative of a lower diversity in the chemical environment of amide protons consistent with the previously reported protein unfolding.[29] […] On the other hand, the pentameric construct of the NPM1 N-end, which lacks the AML-related region, yielded a much lower binding affinity (KD ca. 100 μM range, Figure 3D).
ITC experiments were performed in a Nano ITC Low Volume (TA Instruments) at 25 °C. […]
The purity of the protein samples was checked by SDS–PAGE analysis (Figure S3) and protein quantification was performed using the Bradford protein assay.5 NPM molar concentration was expressed as the pentameric form for NPM1 WT N-end and as a monomer for NPM1 C-end WT and mutant. […]
After extraction with acetonitrile and acidification, samples were desalted and concentrated with C18 tips. Mass spectra were recorded in a Hybrid Quadrupole-Orbitrap™ Mass Spectrometer (Thermo Scientific, Waltham, Massachusetts, USA)

T1 sequence (P06748 225-294): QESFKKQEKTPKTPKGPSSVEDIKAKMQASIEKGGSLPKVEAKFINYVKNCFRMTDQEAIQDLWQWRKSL

COc1ccc(C2Cc3[nH]c4ccccc4c3C(CCNCC3CC3)C2N)cc1 (stereo not shown) [4b, 4-{2-[(Cyclopropylmethyl)amino]ethyl}-2-(4-methoxyphenyl)-2,3,4,9-tetrahydro-1H-carbazol-3-amine]
Densitometry values for NPM1: reduction ([1]; 24 h): 50%
Densitometry values for NPM1: reduction ([1]; 48 h): 70%
NPM1 levels (in words) ([1]; OCI-AML3, qPCR and Western blot): reduced levels
Kd [2]: 37 µM
